Laboratory results published in patent US12662479B2 (Foghorn Therapeutics Inc., priority 2020, dated 2026).

Tests used:
HiBit-BRM fusion protein = target: T1, HiBit-BRM fusion protein (Homo sapiens, UniProt P51531); assay: HiBiT-BRM cell-based degradation assay (Nano-Glo HiBiT Lytic Detection, 24 h); conditions: HeLa cells expressing HiBiT-BRM; for DC50: read-out: BRM HiBit Degradation IC50; for BRM HiBit Degradation Maximum measured: top dose 30 μM
T1 construct: expressed in transfected cells
Summary of the method: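 Luminescence from reconstituted NanoBiT luciferase in lysed HeLa HiBiT-BRM cells served as the measure of remaining BRM after 24 h treatment. Compounds were tested from 30 μM final downward in 3-fold steps. DMSO and 2 μM of a standard BRM/BRG1 degrader defined the scale limits.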

[1] = target: T2, HiBit-BRG1 fusion protein (Homo sapiens, UniProt P51532); assay: HiBiT-BRG1 cell-based degradation assay (Nano-Glo HiBiT Lytic Detection, 24 h); conditions: HeLa cells expressing HiBit-BRG1 and LgBit; for DC50: read-out: BRG1 HiBit Degradation IC50; for Dmax: HeLa, top dose 30 μM, read-out: BRG1 HiBit Degradation Maximum measured
T2 construct: expressed in transfected cells
T2 sequence (P51532 whole entry, the tested form may be a part): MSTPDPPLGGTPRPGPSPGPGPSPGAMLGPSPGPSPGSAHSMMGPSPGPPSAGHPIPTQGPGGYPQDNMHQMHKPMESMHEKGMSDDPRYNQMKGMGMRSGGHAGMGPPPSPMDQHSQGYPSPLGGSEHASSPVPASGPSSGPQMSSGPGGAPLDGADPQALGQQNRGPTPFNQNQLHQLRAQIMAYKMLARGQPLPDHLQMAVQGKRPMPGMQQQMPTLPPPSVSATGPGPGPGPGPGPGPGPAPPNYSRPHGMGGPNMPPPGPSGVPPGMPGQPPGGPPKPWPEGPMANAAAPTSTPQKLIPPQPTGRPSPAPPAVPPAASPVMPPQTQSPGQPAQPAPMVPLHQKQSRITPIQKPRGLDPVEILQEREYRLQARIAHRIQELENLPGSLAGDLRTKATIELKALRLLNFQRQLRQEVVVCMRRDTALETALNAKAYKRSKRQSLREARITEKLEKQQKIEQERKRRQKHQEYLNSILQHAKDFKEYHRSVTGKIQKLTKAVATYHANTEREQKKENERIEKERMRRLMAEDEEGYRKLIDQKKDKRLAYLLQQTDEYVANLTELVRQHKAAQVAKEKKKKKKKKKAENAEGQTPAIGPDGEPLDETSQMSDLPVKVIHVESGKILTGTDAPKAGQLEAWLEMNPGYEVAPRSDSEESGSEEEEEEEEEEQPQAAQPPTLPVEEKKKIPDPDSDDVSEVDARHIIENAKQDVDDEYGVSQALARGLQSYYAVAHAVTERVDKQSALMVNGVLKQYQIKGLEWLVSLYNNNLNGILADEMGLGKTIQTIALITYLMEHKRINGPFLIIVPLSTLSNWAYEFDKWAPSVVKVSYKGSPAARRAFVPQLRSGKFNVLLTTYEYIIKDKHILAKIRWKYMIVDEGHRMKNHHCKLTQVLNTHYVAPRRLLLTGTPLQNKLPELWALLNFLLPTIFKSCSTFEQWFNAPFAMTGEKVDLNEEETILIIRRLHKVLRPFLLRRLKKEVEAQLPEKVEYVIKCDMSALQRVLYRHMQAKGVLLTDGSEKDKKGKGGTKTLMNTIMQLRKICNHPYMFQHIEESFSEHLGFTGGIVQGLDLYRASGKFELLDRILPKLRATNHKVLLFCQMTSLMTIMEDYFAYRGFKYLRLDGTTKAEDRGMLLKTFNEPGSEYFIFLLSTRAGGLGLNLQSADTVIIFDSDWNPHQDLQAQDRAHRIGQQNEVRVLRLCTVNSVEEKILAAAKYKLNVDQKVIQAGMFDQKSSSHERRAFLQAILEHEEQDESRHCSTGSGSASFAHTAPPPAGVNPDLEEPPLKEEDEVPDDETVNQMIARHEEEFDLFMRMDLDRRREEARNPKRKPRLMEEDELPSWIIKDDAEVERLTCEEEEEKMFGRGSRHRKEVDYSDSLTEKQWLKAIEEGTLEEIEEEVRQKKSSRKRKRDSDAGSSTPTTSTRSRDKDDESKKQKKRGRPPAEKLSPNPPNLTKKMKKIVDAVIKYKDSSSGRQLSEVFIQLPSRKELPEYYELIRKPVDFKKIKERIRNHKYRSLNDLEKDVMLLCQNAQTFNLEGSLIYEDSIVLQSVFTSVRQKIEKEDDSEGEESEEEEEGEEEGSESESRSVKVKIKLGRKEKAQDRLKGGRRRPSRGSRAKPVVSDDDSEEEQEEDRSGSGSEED
Summary of the method: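 Stable HeLa line expressing HiBiT-BRG1 and LgBiT, seeded at 5000 cells/well; luminescence read after lytic Nano-Glo HiBiT reagent and 10 min shaking at RT. % degradation normalised between DMSO (high control) and 2 μM reference BRM/BRG1 degrader (low control).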

T1 sequence (P51531 whole entry, the tested form may be a part): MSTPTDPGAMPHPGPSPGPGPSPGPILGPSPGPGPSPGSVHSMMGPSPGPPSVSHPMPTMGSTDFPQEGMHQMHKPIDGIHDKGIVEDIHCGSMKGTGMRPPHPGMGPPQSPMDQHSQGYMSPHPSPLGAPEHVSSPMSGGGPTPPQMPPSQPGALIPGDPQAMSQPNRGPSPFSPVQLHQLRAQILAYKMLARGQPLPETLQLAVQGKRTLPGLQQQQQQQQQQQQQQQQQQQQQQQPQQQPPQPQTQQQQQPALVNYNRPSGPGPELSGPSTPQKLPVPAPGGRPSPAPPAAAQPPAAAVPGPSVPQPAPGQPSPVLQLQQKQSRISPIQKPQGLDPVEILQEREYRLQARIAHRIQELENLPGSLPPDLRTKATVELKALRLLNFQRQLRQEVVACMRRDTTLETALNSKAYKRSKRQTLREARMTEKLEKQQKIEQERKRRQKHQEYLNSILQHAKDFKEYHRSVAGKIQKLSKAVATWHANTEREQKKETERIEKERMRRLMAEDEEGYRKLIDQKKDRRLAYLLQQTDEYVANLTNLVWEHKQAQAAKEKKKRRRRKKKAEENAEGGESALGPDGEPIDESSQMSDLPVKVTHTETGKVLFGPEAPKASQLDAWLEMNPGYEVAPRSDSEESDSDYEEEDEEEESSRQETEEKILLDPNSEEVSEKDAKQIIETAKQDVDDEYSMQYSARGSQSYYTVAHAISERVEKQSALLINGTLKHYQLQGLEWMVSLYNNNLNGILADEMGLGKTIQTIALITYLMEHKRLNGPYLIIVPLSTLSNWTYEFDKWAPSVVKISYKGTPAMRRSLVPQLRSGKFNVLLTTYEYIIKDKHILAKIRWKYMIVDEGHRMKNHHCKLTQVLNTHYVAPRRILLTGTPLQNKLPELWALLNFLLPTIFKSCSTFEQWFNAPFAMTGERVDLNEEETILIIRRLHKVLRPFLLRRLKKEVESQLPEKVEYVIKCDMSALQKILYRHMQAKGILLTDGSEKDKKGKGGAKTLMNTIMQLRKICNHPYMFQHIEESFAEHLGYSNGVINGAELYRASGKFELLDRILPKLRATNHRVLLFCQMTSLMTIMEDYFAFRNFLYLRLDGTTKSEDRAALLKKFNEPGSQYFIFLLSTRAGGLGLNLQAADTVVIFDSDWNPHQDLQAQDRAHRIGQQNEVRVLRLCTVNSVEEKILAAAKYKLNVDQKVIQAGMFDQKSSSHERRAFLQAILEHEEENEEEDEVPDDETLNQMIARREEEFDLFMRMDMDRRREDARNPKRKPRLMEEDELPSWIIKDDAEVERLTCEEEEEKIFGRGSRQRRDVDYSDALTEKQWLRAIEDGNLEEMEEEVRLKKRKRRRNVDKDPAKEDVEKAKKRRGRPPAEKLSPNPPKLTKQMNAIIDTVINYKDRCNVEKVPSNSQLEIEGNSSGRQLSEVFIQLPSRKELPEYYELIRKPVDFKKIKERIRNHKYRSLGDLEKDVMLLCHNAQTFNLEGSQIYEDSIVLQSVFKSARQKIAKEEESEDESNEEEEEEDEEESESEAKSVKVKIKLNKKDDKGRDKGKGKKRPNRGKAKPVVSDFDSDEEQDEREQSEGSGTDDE

CS(=O)(=O)n1ccc(C(=O)NCC(=O)Nc2nc(-c3cccc(-c4ccnc(N5CCN(C(=O)CCOCCOCCOc6ccc7c(c6)C(=O)N(C6CCC(=O)NC6=O)C7=O)CC5)c4)c3)cs2)c1 (stereo not shown) [Compound 73, N-[2-[[4-[3-[2-[4-[3-[2-[2-[2-(2,6-dioxo-3-piperidyl)-1,3-dioxo-isoindolin-5-yl]oxyethoxy]ethoxy]propanoyl]piperazin-1-yl]-4-pyridyl]phenyl]thiazol-2-yl]amino]-2-oxo-ethyl]-1-methylsulfonyl-pyrrole-3-carboxamide]
DC50 (HiBit-BRM fusion protein): 0.1 to 1 µM
BRM HiBit Degradation Maximum measured (HiBit-BRM fusion protein): A (‘A’ = Maximum degradation >75%)
DC50 [1]: 0.1 to 1 µM
Dmax [1]: > 75%

Cc1ncsc1-c1ccc(CNC(=O)[C@@H]2C[C@@H](O)CN2C(=O)[C@@H](NC(=O)CCC(=O)N2CCN(c3cc(-c4cccc(-c5csc(NC(=O)CNC(=O)c6ccn(S(C)(=O)=O)c6)n5)c4)ccn3)CC2)C(C)(C)C)cc1 [Compound 74, N-[2-[[4-[3-[2-[4-[4-[[(1S)-1-[(2S,4R)-4-hydroxy-2-[[4-(4-methylthiazol-5-yl)phenyl]methylcarbamoyl]pyrrolidine-1-carbonyl]-2,2-dimethyl-propyl]amino]-4-oxo-butanoyl]piperazin-1-yl]-4-pyridyl]phenyl]thiazol-2-yl]amino]-2-oxo-ethyl]-1-methylsulfonyl-pyrrole-3-carboxamide]
DC50 (HiBit-BRM fusion protein): > 10 µM
BRM HiBit Degradation Maximum measured (HiBit-BRM fusion protein): C (‘C’ = Maximum degradation <50%)
DC50 [1]: > 10 µM
Dmax [1]: < 50%

Cc1ncsc1-c1ccc(CNC(=O)[C@@H]2C[C@@H](O)CN2C(=O)[C@@H](NC(=O)COCCOCC(=O)N2CCN(c3cc(-c4cccc(-c5csc(NC(=O)CNC(=O)c6ccn(S(C)(=O)=O)c6)n5)c4)ccn3)CC2)C(C)(C)C)cc1 [Compound 75, N-(2-((4-(3-(2-(4-(2-(2-(2-(((S)-1-((2S,4R)-4-hydroxy-2-((4-(4-methylthiazol-5-yl)benzyl)carbamoyl)pyrrolidin-1-yl)-3,3-dimethyl-1-oxobutan-2-yl)amino)-2-oxoethoxy)ethoxy)acetyl)piperazin-1-yl)pyridin-4-yl)phenyl)thiazol-2-yl)amino)-2-oxoethyl)-1-(methylsulfonyl)-1H-pyrrole-3-carboxamide]
DC50 (HiBit-BRM fusion protein): 0.1 to 1 µM
BRM HiBit Degradation Maximum measured (HiBit-BRM fusion protein): B (‘B’ = Maximum degradation ≥50% and ≤75%)
DC50 [1]: 0.1 to 1 µM
Dmax [1]: > 75%

Cc1ncsc1-c1ccc(CNC(=O)[C@@H]2C[C@@H](O)CN2C(=O)[C@@H](NC(=O)CCC(=O)NCCOc2cc(-c3cccc(-c4csc(NC(=O)CNC(=O)c5ccn(S(C)(=O)=O)c5)n4)c3)ccn2)C(C)(C)C)cc1 [Compound 76, N′-[(1S)-1-[(2S,4R)-4-hydroxy-2-[[4-(4-methylthiazol-5-yl)phenyl]methylcarbamoyl]pyrrolidine-1-carbonyl]-2,2-dimethyl-propyl]-N-[2-[[4-[3-[2-[[2-[(1-methylsulfonylpyrrole-3-carbonyl)amino]acetyl]amino]thiazol-4-yl]phenyl]-2-pyridyl]oxy]ethyl]butanediamide]
DC50 (HiBit-BRM fusion protein): > 10 µM
BRM HiBit Degradation Maximum measured (HiBit-BRM fusion protein): C (‘C’ = Maximum degradation <50%)
DC50 [1]: > 10 µM
Dmax [1]: < 50%

Cc1ncsc1-c1ccc(CNC(=O)[C@@H]2C[C@@H](O)CN2C(=O)[C@@H](NC(=O)CCCC(=O)NCCOc2cc(-c3cccc(-c4csc(NC(=O)CNC(=O)c5ccn(S(C)(=O)=O)c5)n4)c3)ccn2)C(C)(C)C)cc1 [Compound 77, N1-((S)-1-((2S,4R)-4-hydroxy-2-((4-(4-methylthiazol-5-yl)benzyl)carbamoyl)pyrrolidin-1-yl)-3,3-dimethyl-1-oxobutan-2-yl)-N5-(2-((4-(3-(2-(2-(1-(methylsulfonyl)-1H-pyrrole-3-carboxamido)acetamido)thiazol-4-yl)phenyl)pyridin-2-yl)oxy)ethyl)glutaramide]
DC50 (HiBit-BRM fusion protein): > 10 µM
BRM HiBit Degradation Maximum measured (HiBit-BRM fusion protein): C (‘C’ = Maximum degradation <50%)
DC50 [1]: > 10 µM
Dmax [1]: < 50%

Cc1ncsc1-c1ccc(CNC(=O)[C@@H]2C[C@@H](O)CN2C(=O)[C@@H](NC(=O)COCC(=O)NCCOc2cc(-c3cccc(-c4csc(NC(=O)CNC(=O)c5ccn(S(C)(=O)=O)c5)n4)c3)ccn2)C(C)(C)C)cc1 [Compound 78, N-[2-[[4-[3-[2-[2-[[2-[2-[[(1S)-1-[(2S,4R)-4-hydroxy-2-[[4-(4-methylthiazol-5-yl)phenyl]methylcarbamoyl]pyrrolidine-1-carbonyl]-2,2-dimethyl-propyl]amino]-2-oxo-ethoxy]acetyl]amino]ethoxy]-4-pyridyl]phenyl]thiazol-2-yl]amino]-2-oxo-ethyl]-1-methylsulfonyl-pyrrole-3-carboxamide]
DC50 (HiBit-BRM fusion protein): > 10 µM
BRM HiBit Degradation Maximum measured (HiBit-BRM fusion protein): C (‘C’ = Maximum degradation <50%)
DC50 [1]: > 10 µM
Dmax [1]: < 50%

Cc1ncsc1-c1ccc(CNC(=O)[C@@H]2C[C@@H](O)CN2C(=O)[C@@H](NC(=O)CCCC(=O)N2CCN(c3cc(-c4cccc(-c5csc(NC(=O)CNC(=O)c6ccn(S(C)(=O)=O)c6)n5)c4)ccn3)CC2)C(C)(C)C)cc1 [Compound 79, N-(2-((4-(3-(2-(4-(5-(((S)-1-((2S,4R)-4-hydroxy-2-((4-(4-methylthiazol-5-yl)benzyl)carbamoyl)pyrrolidin-1-yl)-3,3-dimethyl-1-oxobutan-2-yl)amino)-5-oxopentanoyl)piperazin-1-yl)pyridin-4-yl)phenyl)thiazol-2-yl)amino)-2-oxoethyl)-1-(methylsulfonyl)-1H-pyrrole-3-carboxamide]
DC50 (HiBit-BRM fusion protein): > 10 µM
BRM HiBit Degradation Maximum measured (HiBit-BRM fusion protein): C (‘C’ = Maximum degradation <50%)
DC50 [1]: > 10 µM
Dmax [1]: < 50%

CS(=O)(=O)n1ccc(C(=O)NCC(=O)Nc2nc(-c3cccc(-c4ccnc(OCCNC(=O)C5CC5CNC(=O)COc5ccc6c(c5)C(=O)N(C5CCC(=O)NC5=O)C6=O)c4)c3)cs2)c1 (stereo not shown) [Compound 80, N-[2-[[4-[3-[2-[2-[[2-[[[2-[2-(2,6-dioxo-3-piperidyl)-1,3-dioxoisoindolin-5-yl]oxyacetyl]amino]methyl]cyclopropanecarbonyl]amino]ethoxy]-4-pyridyl]phenyl]thiazol-2-yl]amino]-2-oxoethyl]-1-methylsulfonyl-pyrrole-3-carboxamide]
DC50 (HiBit-BRM fusion protein): > 10 µM
BRM HiBit Degradation Maximum measured (HiBit-BRM fusion protein): C (‘C’ = Maximum degradation <50%)
DC50 [1]: > 10 µM
Dmax [1]: < 50%

CS(=O)(=O)n1ccc(C(=O)NCC(=O)Nc2nc(-c3cccc(-c4ccnc(OCCNC(=O)CCOCCOCCNc5cccc6c5C(=O)N(C5CCC(=O)NC5=O)C6=O)c4)c3)cs2)c1 (stereo not shown) [Compound 81, N-[2-[[4-[3-[2-[2-[3-[2-[2-[[2-(2,6-dioxo-3-piperidyl)-1,3-dioxoisoindolin-4-yl]amino]ethoxy]ethoxy]propanoylamino]ethoxy]-4-pyridyl]phenyl]thiazol-2-yl]amino]-2-oxo-ethyl]-1-methylsulfonyl-pyrrole-3-carboxamide]
DC50 (HiBit-BRM fusion protein): > 10 µM
BRM HiBit Degradation Maximum measured (HiBit-BRM fusion protein): C (‘C’ = Maximum degradation <50%)
DC50 [1]: 0.1 to 1 µM
Dmax [1]: 50 to 75%

CS(=O)(=O)n1ccc(C(=O)NCC(=O)Nc2nc(-c3cccc(-c4ccnc(OCCNC(=O)CCCCCCCCCCNc5cccc6c5C(=O)N(C5CCC(=O)NC5=O)C6=O)c4)c3)cs2)c1 (stereo not shown) [Compound 82, N-[2-[[4-[3-[2-[2-[11-[[2-(2,6-dioxo-3-piperidyl)-1,3-dioxo-isoindolin-4-yl]amino]undecanoylamino]ethoxy]-4-pyridyl]phenyl]thiazol-2-yl]amino]-2-oxo-ethyl]-1-methylsulfonylpyrrole-3-carboxamide]
DC50 (HiBit-BRM fusion protein): > 10 µM
BRM HiBit Degradation Maximum measured (HiBit-BRM fusion protein): C (‘C’ = Maximum degradation <50%)
DC50 [1]: > 10 µM
Dmax [1]: < 50%

CS(=O)(=O)n1ccc(C(=O)NCC(=O)Nc2nc(-c3cccc(-c4ccnc(OCCNC(=O)CCOCCOCCNc5ccc6c(c5)C(=O)N(C5CCC(=O)NC5=O)C6=O)c4)c3)cs2)c1 (stereo not shown) [Compound 83, N-[2-[[4-[3-[2-[2-[3-[2-[2-[[2-(2,6-dioxo-3-piperidyl)-1,3-dioxoisoindolin-5-yl]amino]ethoxy]ethoxy]propanoylamino]ethoxy]-4-pyridyl]phenyl]thiazol-2-yl]amino]-2-oxo-ethyl]-1-methylsulfonyl-pyrrole-3-carboxamide]
DC50 (HiBit-BRM fusion protein): > 10 µM
BRM HiBit Degradation Maximum measured (HiBit-BRM fusion protein): C (‘C’ = Maximum degradation <50%)
DC50 [1]: > 10 µM
Dmax [1]: < 50%

CN(CCOCCOCCNc1cccc2c1C(=O)N(C1CCC(=O)NC1=O)C2=O)C(=O)CN(C)c1cc(-c2cccc(-c3csc(NC(=O)CNC(=O)c4ccn(S(C)(=O)=O)c4)n3)c2)ccn1 (stereo not shown) [Compound 84]
DC50 (HiBit-BRM fusion protein): > 10 µM
BRM HiBit Degradation Maximum measured (HiBit-BRM fusion protein): C (‘C’ = Maximum degradation <50%)
DC50 [1]: > 10 µM
Dmax [1]: < 50%

Cc1ncsc1-c1ccc(CNC(=O)[C@@H]2C[C@@H](O)CN2C(=O)[C@@H](NC(=O)CCCCCC(=O)NCCOc2cc(-c3cccc(-c4csc(NC(=O)CNC(=O)c5ccn(S(C)(=O)=O)c5)n4)c3)ccn2)C(C)(C)C)cc1 [Compound 85, N1-((S)-1-((2S,4R)-4-hydroxy-2-((4-(4-methylthiazol-5-yl)benzyl)carbamoyl)pyrrolidin-1-yl)-3,3-dimethyl-1-oxobutan-2-yl)-N7-(2-((4-(3-(2-(2-(1-(methylsulfonyl)-1H-pyrrole-3-carboxamido)acetamido)thiazol-4-yl)phenyl)pyridin-2-yl)oxy)ethyl)heptanediamide]
DC50 (HiBit-BRM fusion protein): 0.1 to 1 µM
BRM HiBit Degradation Maximum measured (HiBit-BRM fusion protein): A (‘A’ = Maximum degradation >75%)
DC50 [1]: 0.1 to 1 µM
Dmax [1]: > 75%
